Patent publication US8680126B2, “Fluorinated thiazoles for use in treating cancer” (Universitat de Barcelona, priority 2010, dated 2014)

Legend:
[1] = system: Jurkat cell line (T lymphocytes from acute T cell leukemia, mutated TP53); assay: Screening assay in Jurkat cells by measuring cell viability (flow cytometry), single dose; assay type: cell-based, human; parameters: key: “+” means low activity; “++” means good activity; “+++” means very good activity; “−” means no activity; conditions: single dose of 40 μM, 24 hour-incubation
Experimental: (§1) The human cell lines Jurkat (T lymphocytes from acute T cell leukemia), Ramos (B lymphocytes from Burkitt's lymphoma), TK6 (human lymphoblast cell line) HeLa (epithelial cervical carcinoma cell line), MDA-MB 231 (epithelial breast adenocarcinoma cell line), T98-G (glioblastoma cell line) and Hep3B (hepatocellular carcinoma cell line) were obtained from the European Collection of Cell Cultures.
(§2) Jurkat, Ramos, TK6 and CLL cells were grown in RPMI-1640 medium, and HeLa cells in DMEM medium, both containing 10% heat-inactivated fetal calf serum, 1% glutamine, and 1% penicillin-streptomycin. MDA-MB 231 cells were grown in DMEM/F-12 medium containing additionally 1% pyruvate. Hep3B cells were maintained in MEM medium supplemented with 10% fetal bovine serum. All were maintained at 37° C. in humidified atmosphere containing 5% carbon dioxide.
(§3) 0.25-0.3×10^6 cells were washed in phosphate-buffered saline (PBS) and resuspended in 100 μl of annexin binding buffer and incubated with 1 μl of annexin V-Fluorescein-5-isothiocyanate (FITC) or annexin V-Allophycocyanin (APC). After 20 min of incubation in the dark at room temperature, 100 μl of annexin binding buffer with 5 μl of propidium iodide (PI) (20 μg/ml) was added just before flow cytometric analysis. Data were analyzed using the appropriate software. Cell viability was measured by analysis of phosphatidylserine exposure and PI uptake and it is expressed as the percentage of annexin-V and PI double-negative cells.
A screening of the effect of compounds Ia-If was performed in Jurkat cell line (T lymphocytes form acute T cell leukemia) at a single dose of 40 μM for 24 hour-incubation.
Jurkat cells were selected among other leukemic tumor cell lines because they have the protein TP53 mutated.
Every compound mentioned above was dissolved in the minimum amount of DMSO necessary to be dissolved. Cell viability was measured by flow cytometry analysis. […] Thus, all the observed effects on cell viability are due to the compounds' activity.
The results are summarized in Table 2: “+” means low activity; “++” means good activity and “+++” means very good activity; “−” means no activity.

[2] = system: TK6 cells (human lymphoblast cell line with wild-type TP53); assay: Dose-response analysis of apoptosis by flow cytometry in TK6 cells; assay type: cell-based; conditions: 24 hours; for IC50: Homo sapiens, TK6, flow cytometry; for induction of apoptosis (dose-response): TK6, doses from 2 to 40 μM
Experimental: as §1, §2, §3
TK6 cells (human lymphoblast cell line with wild-type TP53) were incubated with a range of doses from 2 to 40 μM of compounds Ia and Id for 24 hours.
(§4) The IC50 of compounds Ia and Id was calculated at 24 hours by flow cytometry analysis, except for Hep3B where crystal violet assay was used. The results are expressed in Table 4 as the percentage of viable cells in respect to untreated cells at 24 hours.

[3] = system: HeLa cells (epithelial cervical carcinoma cell line with inactivated p53); assay: Dose-response analysis of apoptosis by flow cytometry in HeLa cells; assay type: cell-based; conditions: Homo sapiens, 24 hours, flow cytometry (annexin-V negative cells in respect to untreated cells)
Experimental: as §1, §2, §3
(§5) Dose-response analysis was performed using Jurkat mutated-TP53 cancer cells and inactivated p53 cancer cell line HeLa.
(§6) Cell viability was measured by flow cytometry and it is expressed as the percentage of nonapoptotic cells (annexin-V negative) in respect to untreated cells at 24 hours. Therefore, values under 100% are indicative of apoptosis or loss of cell viability.
HeLa cells (epithelial cervical carcinoma cell line with inactivated p53) were incubated with a range of doses from 2 to 40 μM of each compound for 24 hours.
(§7) The IC50 at 24 hours was calculated for each compound using flow cytometry analysis. The results are expressed in Table 3 as the percentage of nonapoptotic cells (annexin-V negative) in respect to untreated cells at 24 hours.
HeLa cells (epithelial cervical carcinoma cell line with inactivated p53) were incubated with a range of doses from 5 to 40 μM of each compound for 24 hours.

[4] = system: MDA-MB-231 cells (epithelial breast adenocarcinoma cell line with mutated TP53); assay: Dose-response analysis of apoptosis by flow cytometry in MDA-MB-231 cells; assay type: cell-based, human; conditions: 24 hours; for IC50: Homo sapiens, MDA-MB-231, flow cytometry; for induction of apoptosis (dose-response): MDA-MB-231, doses from 2 to 60 μM
Experimental: as §1, §2, §3
MDA-MB-231 cells (epithelial breast adenocarcinoma cell line with mutated TP53) were incubated with a range of doses from 2 to 60 μM of compounds Ia and Id for 24 hours.
as §4

[5] = system: Hep3B cells (hepatocellular carcinoma cell line with deleted TP53); assay: Cell viability by crystal violet assay in Hep3B cells; assay type: cell-based, human; conditions: 24 hours; for IC50: Homo sapiens, crystal violet assay; for loss of cell viability (dose-response): doses from 2 to 40 μM, crystal violet
Experimental: as §1, §2
This method allows quantifying the amount of cells that survive after a toxic process, and it consists on cell staining with a colorant, crystal violet. This method is only useful when working with adherent cells that detached after undergoing a toxic process.
After the cells were incubated, in 12 or 24-well plates, with the different stimuli or inhibitors, the cell media was removed, and cells were washed twice with PBS. Then, a solution of Crystal violet at 0.2% (w/v) in 2% ethanol was added during 30 minutes. Following this, the staining solution was removed, and the wells were washed several times with PBS or distilled water until the excess staining that was not incorporated into the cells was eliminated. The plate was air-dried, and the stained cells were lysed in 10% SDS. By spectrophotometric analysis, the absorbance was measured at 595 nm.
The results were then calculated as the percentage of viable cells relative to control cells (cells incubated in the absence of treatment) at the indicated times.
Hep3B cells (hepatocellular carcinoma cell line with deleted TP53) were incubated with a range of doses from 2 to 40 μM of compounds Ia and Id for 24 hours.
as §4

[6] = system: Jurkat cells (T lymphocytes from acute T cell leukemia with mutated TP53); assay: Dose-response analysis of apoptosis by flow cytometry in Jurkat cells; assay type: cell-based; conditions: Homo sapiens, 24 hours, flow cytometry (annexin-V negative cells in respect to untreated cells)
Experimental: as §1, §2, §3, §5, §6
Jurkat cells (which are T lymphocytes from acute T cell leukemia with mutated TP53) were incubated with a range of doses from 1 to 40 μM of each compound for 24 hours.
as §7
Jurkat cells (which are T lymphocytes from acute T cell leukemia with mutated TP53) were incubated with a range of doses from 5 to 40 μM of each compound for 24 hours.

B-CLL cells = assay: IC50 by flow cytometry in primary B-CLL cells; assay type: cell-based; conditions: Homo sapiens, 24 hours
Experimental: as §2
(§8) Peripheral blood lymphocytes from CLL patients were obtained from the Haematology Unit at the IDIBELL-Hospital de Bellvitge, L'Hospitalet de Llobregat, Barcelona, Spain. CLL was diagnosed according to standard clinical and laboratory criteria. […] The purity of CLL samples was evaluated with allophycocyanin (APC)-conjugated anti-CD3 and phycoerythrin (PE)-conjugated anti-CD19 (Becton Dickinson, Frankiln Lakes, N.J., USA). Data were analysed by flow cytometry and the analysis was performed with the appropriate software.
(§9) 0.25-0.3×10^6 cells were washed in phosphate-buffered saline (PBS) and resuspended in 100 μl of annexin binding buffer and incubated with 1 μl of annexin V-Fluorescein-5-isothiocyanate (FITC) or annexin V-Allophycocyanin (APC). […] Data were analyzed using the appropriate software. […]
The IC50 of compounds Ia and Id was calculated at 24 hours by flow cytometry analysis, except for Hep3B where crystal violet assay was used. […]

[7] = system: B-CLL cells from patients with mutated TP53; assay: Dose-response analysis of apoptosis by flow cytometry in B-CLL cells, mutated TP53; assay type: cell-based, human; conditions: B-CLL cells mutated TP53, doses from 1 to 20 μM, 24 hours
Experimental: as §2
as §8, with “criteria. Written informed consent was obtained from all patients, in accordance with the Hospital de Bellvitge's Ethical Committee.” for “criteria.”
as §9

[8] = system: T98-G cells (glioblastoma cell line with mutated TP53); assay: Dose-response analysis of apoptosis by flow cytometry in T98-G cells; assay type: cell-based, human; conditions: 24 hours; for IC50: Homo sapiens, T98G, flow cytometry; for induction of apoptosis (dose-response): T98-G, doses from 2 to 60 μM
Experimental: as §1, §3
T98-G cells (glioblastoma cell line with mutated TP53) were incubated with a range of doses from 2 to 60 μM of compounds Ia and Id for 24 hours.
as §4

[9] = system: Ramos cells (B lymphocytes from Burkitt's lymphoma with mutated TP53); assay: Dose-response analysis of apoptosis by flow cytometry in Ramos cells; assay type: cell-based, human; conditions: 24 hours; for IC50: Homo sapiens, flow cytometry; for induction of apoptosis (dose-response): doses from 2 to 40 μM
Experimental: as §1, §2, §3
Ramos cells (B lymphocytes from Burkitt's lymphoma with mutated TP53) were incubated with a range of doses from 2 to 40 μM of compounds Ia and Id for 24 hours.
as §4

[10] = system: B-CLL cells from patients with wild-type TP53; assay: Dose-response analysis of apoptosis by flow cytometry in B-CLL cells, wild-type TP53; assay type: cell-based, human; conditions: 24 hours; for induction of apoptosis (dose-response): B-CLL cells wild-type TP53, doses from 1 to 20 μM
Experimental: as §2
Peripheral blood lymphocytes from CLL patients were obtained from the Haematology Unit at the IDIBELL-Hospital de Bellvitge, L'Hospitalet de Llobregat, Barcelona, Spain. CLL was diagnosed according to standard clinical and laboratory criteria. Written informed consent was obtained from all patients, in accordance with the Hospital de Bellvitge's Ethical Committee. Mononuclear cells from heparinized peripheral blood samples were isolated by centrifugation on a Ficoll-Hypaque (Seromed, Berlin, Germany) gradient. The purity of CLL samples was evaluated with allophycocyanin (APC)-conjugated anti-CD3 and phycoerythrin (PE)-conjugated anti-CD19 (Becton Dickinson, Frankiln Lakes, N.J., USA). Data were analysed by flow cytometry and the analysis was performed with the appropriate software.
as §3
B-CLL cells from patients with wild-type TP53 were incubated with a range of doses from 1 to 20 μM of compounds Ia and Id for 24 hours. […]

[11] = system: T cells (CLL cells from patients with wild-type TP53); assay: Dose-response analysis by flow cytometry in T cells of CLL patients, wild-type TP53; assay type: cell-based, human; conditions: doses from 5 to 40 μM, 24 hours
Experimental: Viability was measured by flow cytometry and it is expressed as the percentage of nonapoptotic cells (annexin-V FITC negative). A representative patient is shown.
as §2
as §8, with “Spain.” for “Spain. CLL was diagnosed according to standard clinical and laboratory criteria.”
as §9

Row | Structure (SMILES) | Biological activity [1] | IC50 [2] [µM] | induction of apoptosis (dose-response) [2] | IC50 [3] [µM] | IC50 [4] [µM] | induction of apoptosis (dose-response) [4] | IC50 [5] [µM] | loss of cell viability (dose-response) [5] | IC50 [6] [µM] | IC50 (B-CLL cells) [µM] | induction of apoptosis (dose-response) [7] | IC50 [8] [µM] | induction of apoptosis (dose-response) [8] | IC50 [9] [µM] | induction of apoptosis (dose-response) [9] | induction of apoptosis (dose-response) [10] | sensitivity of T cells compared with B cells [11] | induction of apoptosis (dose-response) in B cells ([10]; CLL cells wild-type TP53, B cells, doses from 5 to 40 μM)
1 | Fc1nc(C2=NC(F)(F)C(F)(c3ccccc3)S2)sc1-c1ccccc1 (centres unmarked) [Ia, 4-fluoro-5-phenyl-2-(4,4,5-trifluoro-5-phenyl-4,5-dihydrothiazol-2-yl)thiazole] | +++ | 8 | induced apoptosis in a dose-dependent manner | 20 | 16 | induced apoptosis in a dose-dependent manner | 14 | induced a loss on cell viability in a dose-dependent manner | 4 | 4 | induced apoptosis in a dose-dependent manner | 50 | induced apoptosis in a dose-dependent manner | 4.5 | induced apoptosis in a dose-dependent manner | induced apoptosis in a dose-dependent manner |  | 
2 | FC1(F)N=C(c2ncc(-c3ccccc3)s2)SC1(F)c1ccccc1 (centres unmarked) [Ib, 5-phenyl-2-(4,4,5-trifluoro-5-phenyl-4,5-dihydrothiazol-2-yl)thiazole] | +++ |  |  | 8 |  |  |  |  | 3 |  |  |  |  |  |  |  |  | 
3 | FC1(F)N=C(c2ccccc2)SC1(F)c1ccccc1 (centres unmarked) [Ic, 4,4,5-trifluoro-2,5-diphenyl-4,5-dihydrothiazole] | ++ |  |  | 10 |  |  |  |  | 8 |  |  |  |  |  |  |  | less sensitive | induced apoptosis in a dose-dependent manner
4 | FC1(F)N=C(c2ccc(Cl)cc2)SC1(F)c1ccc(Cl)cc1 (centres unmarked) [Id, 4,4,5-trifluoro-2,5-bis(4-chlorophenyl)-4,5-dihydrothiazole] | +++ | 2.5 | induced apoptosis in a dose-dependent manner | 1.75 | 4 | induced apoptosis in a dose-dependent manner | 5 | induced a loss on cell viability in a dose-dependent manner | 3.5 | 5 | induced apoptosis in a dose-dependent manner | 7.5 | induced apoptosis in a dose-dependent manner | 3.5 | induced apoptosis in a dose-dependent manner | induced apoptosis in a dose-dependent manner |  | 
5 | FC1(F)N=C(c2ccc(-c3ccccc3)cc2)SC1(F)c1ccccc1 (centres unmarked) [Ie, 4,4,5-trifluoro-2-(biphenyl-4-yl)-5-phenyl-4,5-dihydrothiazole] | + |  |  | 3.5 |  |  |  |  | 20 |  |  |  |  |  |  |  |  | 
6 | CCOC(=O)c1ccc(C2=NC(F)(F)C(F)(c3ccc(C)cc3)S2)cc1 (centres unmarked) [If, ethyl 4-(4,4,5-trifluoro-5-(p-tolyl)-4,5-dihydrothiazol-2-yl)benzoate] | ++ |  |  | 17 |  |  |  |  | 8 |  |  |  |  |  |  |  |  | 
7 | Clc1ccc(-c2cnc(-c3ccc(Cl)cc3)s2)cc1 [comparative Ad, 2,5-bis(4-chlorophenyl)thiazole, reference compound] | − |  |  |  |  |  |  |  |  |  |  |  |  |  |  |  |  | 
